From US20210179577A1, “AROMATIC SULFONAMIDE DERIVATIVES FOR THE TREATMENT OF ISCHEMIC STROKE” (Bayer Aktiengesellschaft, priority 2017, published 2021)

Tests used:
Format in all cases: cell-based
[1] = biological target: T1, hP2X4 (Homo sapiens, UniProt Q99571); assay: Human P2X4 HEK Cell Electrophysiology Assay B (QPatch); settings: ATP 5 microM, -90 mV; read-out: Human P2X4 HEK Cells (QPatch Electrophysiology) avg IC50
T1 construct: expressed in transfected cells; host or cells: HEK-293 mito-Photina, clone 2a/4
T1 sequence (Q99571 1-388): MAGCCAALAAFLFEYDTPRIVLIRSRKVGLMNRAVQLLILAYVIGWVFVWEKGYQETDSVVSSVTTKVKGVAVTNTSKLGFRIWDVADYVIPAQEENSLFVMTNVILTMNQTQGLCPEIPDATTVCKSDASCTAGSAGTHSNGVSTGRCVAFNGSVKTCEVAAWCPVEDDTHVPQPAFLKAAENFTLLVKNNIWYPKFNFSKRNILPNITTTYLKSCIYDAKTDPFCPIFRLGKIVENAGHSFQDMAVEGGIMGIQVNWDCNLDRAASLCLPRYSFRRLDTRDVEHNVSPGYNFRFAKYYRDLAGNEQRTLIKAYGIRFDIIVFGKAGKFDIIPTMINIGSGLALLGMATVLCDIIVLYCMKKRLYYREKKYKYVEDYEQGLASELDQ
Description: Cell culture conditions: HEK-293 mito-Photina pcDNA3(neo-)/pPURO N/pcDNA3_P2RX4, clone 2a/4 (HEK-293 mito-Photina/hP2RX4) cells were cultured in EMEM Minimum Essential Medium Eagle with Earl's salts Balanced Salt Solution (BioWhittaker cat. BE12-125F) supplemented with 5 mL of 200 mM Ultraglutaminel (BioWhittaker cat. BE17-605E/U1), 5 mL of 100× Penicillin/Streptomycin (BioWhittaker cat. DE17-602E; final concentration 1%), 4 mL of 50 mg/mL G418 (Sigma cat. G8168-100 mL; final concentration 400 μg/mL), 10 μL of 10 mg/mL Puromicin (InvivoGen cat. ant-pr-1; final concentration 0.2 μg/mL) and 50 mL of Fetal Bovine Serum (Sigma cat. F7524; final concentration 10%).
Experimentalprotocol: HEK-293 cell lines are seeded 72 or 96 hours before experiment, at a concentration of 5 or 2.5 million cells, respectively onto a T225 flask. Just before the experiments cells are washed twice with D-PBS w/o Ca2+/Mg2+(Euroclone cat. ECB4004L) and detached from the flask with trypsin-EDTA (Sigma, cat. T4174 diluted 1/10). Cells are then re-suspended in the suspension solution: 25 mL EX-CELL ACF CHO medium (Sigma, cat. C5467); 0.625 mL HEPES (BioWhittaker, cat. BE17-737E); 0.25 mL of 100× Penicillin/Streptomycin (BioWhittaker, cat. DE17-602E), 0.1 mL of Soybean Trypsin Inhibitor 10 mg/mL (Sigma, cat. T6522) and placed on the QPatch 16X.
Compound preparation and storage: Compound stock solutions (10 mM; 100% DMSO; stored at −20° C.) were used. Fresh solutions from stock (1 or 3 mM, 100% DMSO) were prepared just before the experiments (0.1% final DMSO concentration).
Patch clamp analysis with QPatch16X (FIG. 1): Standard whole-cell voltage clamp experiments are performed at room temperature using the multihole technology.
For the voltage clamp experiments on hP2X4, data are sampled at 2 KHz. After establishment of the seal and the passage in the whole cell configuration, the cells are held at −90 mV and the hP2X4 current is evoked by the agonist in the absence (vehicle period, i.e. 0.1% DMSO) or in the presence of the compound under investigation at increasing concentrations; see the application protocol in FIG. 1.
Output: the maximum inward current induced by the agonist (ATP 5 microM).
The intracellular solution contained (mM) 135 CsF, 10 NaCl, 1 EGTA, 10 HEPES (pH 7.2 with CsOH) whereas the extracellular solution (mM) 145 NaCl, 4 KCl, 0.5 MgCl2, 1 CaCl2, […], 10 Glucose (pH 7.4 with NaOH).
For data collection, the Sophion software was used and the analysis was performed off-line using Excel and GraphPad Prism.
When possible, i.e. when the % of inhibition with the highest concentration tested was more than 50%, the dose-response curves data were fitted with the following equation:
[X is log of concentration; Y is normalized response (100% down to 0%, decreasing as X increases); Log IC50 same log units as X; HillSlope is unitless slope factor or hill slope]

[2] = biological target: T2, human P2X4 (Homo sapiens, UniProt Q99571); assay: Human P2X4 HEK Cell FLIPR Assay; design: expressed in transfected cells; host or cells: HEK293; settings: HEK293 cells, agonist Bz-ATP at EC80
T2 sequence (Q99571 1-388): T1 sequence (Q99571 1-388)
Description: HEK293 cells stably expressing human P2X4 were plated in poly-D-lysine-coated 384-well plates at a seeding density of 30000 cells/well and incubated overnight. P2X4 function was assessed by measuring intracellular calcium changes using the calcium-chelating dye Fluo8-AM (Molecular Devices) on a fluorescent imaging plate reader (FLEX/FLIPR station; Molecular Devices). On the day of the assay, the medium was removed and the cells were incubated for 30 min at 37° C. and 5% CO2 in 30 μL of dye buffer (Hank's balanced salt solution, 10 mM HEPES, 1.8 mM CaCl2, 1 mM MgCl2, 2 mM probenecid, 5 mM D-glucose monohydrate, 5 μM Fluo8-AM, pH=7.4). Compounds diluted in probenecid buffer (Hank's balanced salt solution, 10 mM HEPES, 1.8 mM CaCl2, 1 mM MgCl2, 2 mM probenecid, 5 mM D-glucose monohydrate, pH=7.4) were added in a volume of 10 μL and allowed to incubate for 30 min at room temperature. The final assay DMSO concentration was 0.5%. The agonist, Bz-ATP (Tocris), was added in a volume of 10 μL at a concentration representing the EC80 value. The EC80 value of Bz-ATP was determined each assay day prior to compound profiling. The fluorescence was measured for an interval of 120 sec at 2 sec intervals. The excitation and emission wavelengths used to monitor fluorescence were 470-495 nm and 515-575 nm, respectively. The data was analyzed based on the increase in peak relative fluorescence units (RFU) compared to the basal fluorescence and the data was normalized to the agonist control. The compounds were tested in triplicates per plate and mean values were plotted in Excel XL-Fit to determine IC50 values, percentage of maximal inhibition and the Hill coefficients.

[3] = biological target: T3, mouse P2X4 (Mus musculus, UniProt Q9JJX6); assay: FLIPR assay, mouse P2X4 1321N1 Astrocytoma Cells; settings: 1321N1 Astrocytoma cells
T3 construct: expressed in transfected cells; host or cells: 1321N1 astrocytoma cells
T3 sequence (Q9JJX6 1-388): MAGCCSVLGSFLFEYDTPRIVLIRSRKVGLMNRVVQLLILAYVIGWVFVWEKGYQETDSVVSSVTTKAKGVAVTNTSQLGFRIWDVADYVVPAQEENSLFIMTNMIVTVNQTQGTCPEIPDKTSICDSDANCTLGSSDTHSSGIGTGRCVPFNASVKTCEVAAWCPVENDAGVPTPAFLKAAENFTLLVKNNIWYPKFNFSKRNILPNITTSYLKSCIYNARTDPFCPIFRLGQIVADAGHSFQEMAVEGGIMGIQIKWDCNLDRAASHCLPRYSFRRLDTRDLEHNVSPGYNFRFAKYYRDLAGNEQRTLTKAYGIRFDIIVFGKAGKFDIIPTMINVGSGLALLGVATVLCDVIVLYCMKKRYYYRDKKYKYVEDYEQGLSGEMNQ
Description: (§1) 1321N1 Astrocytoma cells stably expressing human P2X4 or rat P2X4 or mouse P2X4 were plated in Collagen ITO-treated microplate at a seeding density of 10000 cells/well and incubated overnight. P2X4 function was assessed by measuring intracellular calcium changes using the calcium-chelating dye Fluo8-AM (Molecular Devices) on a fluorescent imaging plate reader (FLEX/FLIPR station; Molecular Devices). On the day of the assay, the medium was removed and the cells were incubated for 30 min at […] and 5% CO2 in 30 μL of dye buffer (Hank's balanced salt solution, 10 mM HEPES, 1.8 mM CaCl2, 1 mM MgCl2, 2 mM probenecid, 5 mM D-glucose monohydrate, 5 μM Fluo8-AM, pH=7.4). Compounds diluted in probenecid buffer (Hank's balanced salt solution, 10 mM HEPES, 1.8 mM CaCl2, 1 mM MgCl2, 2 mM probenecid, 5 mM D-glucose monohydrate, pH=7.4) were added in a volume of 10 μL and allowed to incubate for 30 min at room temperature. The final assay DMSO concentration was 0.25%. The agonist, Mg-ATP (Sigma), was added in a volume of 10 μL at a concentration representing the EC80 value. EC80 was determined to be 0.5 μM for human and mouse P2X4 and 5 μM for rat P2X4. The fluorescence was measured for an interval of 120 sec at 2 sec intervals. The excitation and emission wavelengths used to monitor fluorescence were 470-495 nm and 515-575 nm, respectively. The data was analyzed based on the increase in peak relative fluorescence units (RFU) compared to the basal fluorescence and the data was normalized to the agonist control. The compounds were tested in triplicates per plate and mean values were plotted in Excel XLFit to determine IC50 values, percentage of maximal inhibition and the Hill coefficients.

[4] = biological target: T4, rat P2X4 (Rattus norvegicus, UniProt P51577); assay: FLIPR assay, rat P2X4 1321N1 Astrocytoma Cells; settings: 1321N1 Astrocytoma cells
T4 construct: expressed in transfected cells; host or cells: 1321N1 astrocytoma cells
T4 sequence (P51577 1-388): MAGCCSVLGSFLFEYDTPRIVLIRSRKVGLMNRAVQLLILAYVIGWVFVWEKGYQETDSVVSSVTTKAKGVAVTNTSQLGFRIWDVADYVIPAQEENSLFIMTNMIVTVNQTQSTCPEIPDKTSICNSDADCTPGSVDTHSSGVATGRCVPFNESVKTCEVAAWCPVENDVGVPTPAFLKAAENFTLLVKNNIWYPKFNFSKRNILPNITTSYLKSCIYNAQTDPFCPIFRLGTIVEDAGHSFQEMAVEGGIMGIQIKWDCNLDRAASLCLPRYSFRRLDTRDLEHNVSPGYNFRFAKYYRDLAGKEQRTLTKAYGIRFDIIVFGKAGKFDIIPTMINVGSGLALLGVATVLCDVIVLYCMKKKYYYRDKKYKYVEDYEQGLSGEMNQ
Description: as §1

[5] = biological target: T2, human P2X4; assay: FLIPR assay, human P2X4 1321N1 Astrocytoma Cells; design: expressed in transfected cells; settings: 1321N1 Astrocytoma cells
Description: as §1

SMILES | IC50 [1] [nM] | IC50 [2] [nM] | EC80 of the agonist, mouse P2X4 [3] [nM] | EC80 of the agonist, rat P2X4 [4] [nM] | EC80 of the agonist, human P2X4 [5] [nM]
Cn1cc(-c2ccc(NC(=O)Cc3ccccc3Cl)cc2S(N)(=O)=O)cn1 [Example 360, 2-(2-Chlorophenyl)-N-[4-(1-methyl-1H-pyrazol-4-yl)-3-sulfamoylphenyl]acetamide] | 205 | 132 |  |  | 
NS(=O)(=O)c1cc(NC(=O)Cc2ccccc2F)cnc1-n1cc(C(F)(F)F)cn1 [Example 381, 2-(2-Fluorophenyl)-N-{5-sulfamoyl-6-[4-(trifluoromethyl)-1H-pyrazol-1-yl]pyridin-3-yl}acetamide] | 2580 | 1240 |  |  | 
Nc1ncnc2c1ncn2[C@@H]1O[C@H](COP(=O)(O)OP(=O)([O-])OP(=O)([O-])O)[C@@H](O)[C@H]1O.[Mg+2] [Mg-ATP, reference compound] |  |  | 500 | 5000 | 500
